Reference: patent publication EP0063946A1, “Diagnosis of kidney function” (priority 1981, dated 1982)

Assays:
[1] = Animal biodistribution and clearance studies in rats; format: in vivo
Description: Samples for animal biodistribution studies were administered 1-2 hours post preparation.
Comparative data for Hippuran, Tc-99m TDG and Tc-99m DTPA in rats is set out in Table II.

[2] = background statement; cited from earlier work

Question: With `O=C(O)CNC(=O)c1ccccc1[131I]` [Hippuran, sodium iodohippurate] as the compound, how does the Clearance half time [1] read?
Answer: 10.4 min

Question: And the “% in urine at 30 min p.i.” value ([1]; 30 min p.i.)?
Answer: 82.6%

Question: What about the “2 hour dissection (% injected dose) Bladder” value ([1]; 2 hour dissection) of the same compound?
Answer: 93.0 % injected dose

Question: And the “2 hour dissection (% injected dose) Intestine” value ([1]; 2 hour dissection)?
Answer: 2.5 % injected dose

Question: And the “2 hour dissection (% injected dose) Kidney” value ([1]; 2 hour dissection)?
Answer: 0.2 % injected dose

Question: And the “2 hour dissection (% injected dose) Liver” value ([1]; 2 hour dissection)?
Answer: 0.2 % injected dose

Question: What about the “removed from the blood in a single pass through the kidney” value [2] of the same compound?
Answer: About 80%
